Experimental data: patent publication US6962942B2, “Azacycloalkanone serine protease inhibitors” (3-Dimensional Pharmaceuticals, Inc., priority 1999, dated 2005)

Columns and labels:
human factor Xa = molecular target: T1, human factor Xa (Homo sapiens, UniProt P00742); assay: In vitro inhibition of purified factor Xa (p-nitroanilide substrate hydrolysis, Ki determination); format: biochemical; settings: for Ki: substrate N-benzoyl-Ile-Glu-Gly-Arg-p-nitroanilide hydrochloride, pH 7.5, 37° C., read-out: Ki against factor Xa
T1 construct: purchased Enzyme Research Laboratories (South Bend, Indiana)
Source text: (§1) Reagents: All buffer salts were obtained from Sigma Chemical Company (St. Louis, Mo.), and were of the highest purity available. The enzyme substrates, N-benzoyl-Phe-Val-Arg-p-nitroanilide (Sigma B7632), N-benzoyl-Ile-Glu-Gly-Arg-p-nitroanilide hydrochloride (Sigma B2291), N-p-Tosyl-Gly-Pro-Lys-p-nitroanilide (Sigma T6140), N-succinyl-Ala-Ala-Pro-Phe-p-nitroanilide (Sigma S7388) and N-CBZ-Val-Gly-Arg-p-nitroanilide (Sigma C7271) were obtained from Sigma. N-succinyl-Ala-Ala-Pro-Arg-p-nitroanilide (BACHEM L-1720) and N-succinyl-Ala-Ala-Pro-Val-p-nitroanilide (BACHEM L-1770) were obtained from BACHEM (King of Prussia, Pa.).
(§2) Human α-thrombin, and human factor Xa were obtained from Enzyme Research Laboratories (South Bend, Indiana). Bovine α-chymotrypsin (Sigma C4129), bovine trypsin (Sigma T8642) and human kidney cell urokinase (Sigma U5004) were obtained from Sigma. Human leukocyte elastase was obtained from Elastin Products (Pacific, Mo.).
(§3) Ki Determinations: All assays are based on the ability of the test compound to inhibit the enzyme catalyzed hydrolysis of a peptide p-nitroanilide substrate. […] In general, substrate concentrations are lower than the experimentally determined value for Km. […]
(§4) In a typical Ki determination, into each well of a 96 well plate is pipetted […] of substrate solution, […] of test compound solution, and the plate allowed to thermally equilibrate at 37° C. in a Molecular Devices plate reader for >15 minutes. Reactions were initiated by the addition of a […] aliquot of enzyme and the absorbance increase at 405 nm is recorded for 15 minutes. […] The ratio of the velocity (rate of change in absorbance as a function of time) for a sample containing no test compound is divided by the velocity of a sample containing test compound, and is plotted as a function of test compound concentration. The data are fit to a linear regression, and the value of the slope of the line calculated. The inverse of the slope is the experimentally determined Ki value. […]

Human α-thrombin = molecular target: T2, Human α-thrombin (Homo sapiens, UniProt P00734); assay: In vitro inhibition of purified thrombin (p-nitroanilide substrate hydrolysis, Ki determination); format: biochemical; settings: substrate N-succinyl-Ala-Ala-Pro-Arg-p-nitroanilide, pH 7.5, 37° C.; read-out: Ki against thrombin
T2 construct: Human α-thrombin, and human factor Xa were obtained from Enzyme Research Laboratories; purchased Enzyme Research Laboratories (South Bend, Indiana)
Source text: as §1, §2, §3, §4

T1 sequence (P00742 235-488 limits assumed): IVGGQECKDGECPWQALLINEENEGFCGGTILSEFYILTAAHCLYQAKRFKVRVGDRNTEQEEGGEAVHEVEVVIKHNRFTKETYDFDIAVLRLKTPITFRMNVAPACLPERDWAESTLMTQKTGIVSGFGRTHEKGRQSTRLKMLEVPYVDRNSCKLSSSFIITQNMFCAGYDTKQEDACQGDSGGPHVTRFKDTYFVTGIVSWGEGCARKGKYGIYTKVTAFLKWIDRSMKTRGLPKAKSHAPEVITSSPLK
T1 sequence (P00742 41-179 partner limits assumed): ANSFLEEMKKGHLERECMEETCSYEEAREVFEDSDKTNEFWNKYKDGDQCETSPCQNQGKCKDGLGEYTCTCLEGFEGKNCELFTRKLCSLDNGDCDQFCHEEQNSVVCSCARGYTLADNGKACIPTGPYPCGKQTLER

activity against factor Xa (human factor Xa; at a concentration of 10 μM) | Ki (Human α-thrombin) [nM] | Ki (human factor Xa) [nM] | Compound
no activity | 700 | – | N=C(N)NOCCNC(=O)CN1CCC[C@H](NS(=O)(=O)Cc2ccccc2)C1=O [Example 2]
– | 1200 | 2100 | COc1ccc(S(=O)(=O)N[C@H]2CCCN(CC(=O)NCCONC(=N)N)C2=O)cc1 [Example 11]
– | 6400 | 360 | N=C(N)NOCCNC(=O)CN1CCC[C@H](NS(=O)(=O)c2ccc(-c3ccc4ccccc4c3)cc2)C1=O [Example 42]
